The test system of the assay is P. falciparum 3D7 growth, pLDH absorbance. Put plainly: P. falciparum 3D7 growth inhibition, dose response, strain 3D7 (AID 2305).

Several values for one entry are separate records, joined by “and”; a condition that tells them apart may be missing. Equal entries are not always repeated.

A word on the IC50: it is the midpoint of a concentration-inhibition curve. Read a low IC50 as greater potency in that assay. In turn, `CCN(CC)S(=O)(=O)c1ccc(C(C)NC(=O)c2ccccc2COc2ccccc2)cc1` (stereo not drawn) yielded a concentration for half-maximal inhibition (IC50) of 330 nM. Compound `O=C(Nc1cccc(CN2CCN(C(=O)c3cccc(F)c3)CC2)c1)c1ccco1` gave an IC50 of 770 nM. As for `CN(Cc1ccncc1)C(Cc1ccccc1)C1CCN(Cc2ccc(O)c(Cl)c2)CC1` (stereo not drawn), the IC50 was 750 nM. The figure for `CN1CCN(Cc2ccc(-c3cc4nccc(Nc5ccc(Oc6ccccc6)cc5)c4cc3Cl)o2)CC1` is 980 nM. With `CCCCC1(c2ccc(F)cc2)NC(=O)N(CC(=O)c2cc(C)n(Cc3ccco3)c2C)C1=O` (stereo not drawn) the figure was 980 nM; with `CCN1CCCC1CNC(=O)c1cc2c(-c3ccc(Cl)cc3)nn(C)c2s1` (stereo not drawn), 790 nM. With `Cc1nc(/N=C(\N)NC(=O)NC2CCCCC2)nc2ccccc12` the figure was 790 nM; with `CNCCNCc1cccc(-c2cccc(-c3nc4ccc(F)cc4[nH]3)c2)c1`, 670 nM.

`O=S1N=C(NCCCN(Cc2cccs2)c2ccccn2)C(NCc2ccccc2)=N1` (stereo not drawn) gave an IC50 of 310 nM. With `Cc1cccc2[nH]c(-c3ccc(-c4cccc(NC(=O)NCc5ccc(F)cc5)c4)cc3)nc12` the figure was 150 nM; with `c1cc(-c2ccc(CNCCCn3ccnc3)cc2)cc(-c2nc3ccccc3[nH]2)c1`, 110 nM. The figure for `Nc1c2c(nc3ccc(C(=O)Nc4cc(I)c(O)c(I)c4)cc13)CCCC2` is 1010 nM; for `COc1ccc(-c2cc3ncn(CC(=O)N4CCN(c5cccc(OC)c5)CC4)c(=O)c3s2)cc1` it is 1060 nM. The figure for `Cc1cccc2[nH]c(-c3ccc(-c4cccc(NC(=O)Nc5ccsc5)c4)s3)nc12` is 540 nM; for `CCOc1cc2c(cc1OCC)C(c1cc(OC)c(O)cc1Cl)NCC2` (stereo not drawn) it is 750 nM. Regarding `COc1ccc(CNCc2ccccc2)cc1-c1ccc(S(=O)(=O)NCCN2CCCC2)c(C)c1`, the IC50 turned out to be 860 nM.

With `Cc1nc(N/C=C/c2ccc(O)cc2)cc(N2CCCC2)n1`, the half-inhibitory concentration (IC50) turned out to be 1070 nM. The figure for `Cc1cc(N(CCN2CCCCC2)CCN2CCCCC2)nc(Nc2ccc(Cl)cc2)n1` is 270 nM; for `COc1cc(F)c2ncc(Cl)c([C@@H](O)CN3CCC(NCc4ccc5c(n4)NC(=O)CO5)CC3)c2c1` it is 120 nM; for `O=C1OC(c2ccccc2)(c2ccccn2)CN1C1CCN(Cc2cccn2-c2ccc(Cl)cc2)CC1` (stereo not drawn) it is 470 nM. Turning to `O=C(/C=C/c1ccc(Cl)c(Cl)c1)NCCCCCCN1CCCN(C(=O)Nc2ccc(F)c(Cl)c2)CC1`, the IC50 was 740 nM. `Cc1ccc2nc3ccccc3c(NCCN3CCN(C)CC3)c2c1` showed an IC50 of 590 nM.

For the compound `CC(=O)c1nccc(C)c1N`, the IC50 amounted to 930 nM.

`CCN(c1ccccc1)S(=O)(=O)c1ccc(NC(=O)c2cc(-c3cc(C)ccc3O)n[nH]2)cc1` yielded an IC50 of 770 nM. The figure for `O=C1C(c2ccccc2)=C(Nc2ccc(OC(F)(F)F)cc2)c2ccccc21` is 110 nM. With `Cc1cc(NC2CCCC2)nc(Nc2ccccc2F)n1` the figure was 930 nM; with `COc1c(CN2CCCC2)cccc1-c1cc2c(-c3ccc(C(=O)O)c(C(C)C)c3)ccnc2[nH]1`, 440 nM. On to `COc1ccc(C2CC(=O)C3=C(C2)NC(C)=C(C(=O)OC(C)C)C3c2ccc(O)cc2)cc1OC` (stereo not drawn), for which the IC50 was 280 nM.

For the compound `N#Cc1cccc(C(=O)Nc2cccc(-c3cccc(CN4CCNCC4)c3)c2)c1`, the IC50 came to 950 nM. The figure for `COc1ccc(CCn2c(=N)c(C(=O)NC3CCCC3)cc3c(=O)n4ccccc4nc32)cc1` is 680 nM; for `O=C(/C=C/c1ccc(Cl)c(Cl)c1)NCCCCCN1CCCN(C(=O)Nc2cccc(Cl)c2)CC1` it is 670 nM; for `O=C(Nc1ccc(Cn2ncc(N3CCCNCC3)c(Cl)c2=O)cc1)Nc1ccc(-c2ccccc2)cc1` it is 820 nM and 800 nM. With `O=S(=O)(NC1=NCCC1)c1cccc(Nc2nc(C(F)(F)F)nc3ccccc23)c1` the figure was 950 nM.

Take `Cc1ccccc1C1CCN(c2ncc(C(=O)NC3CC3)cc2Cl)CC1`: the IC50 was 700 nM. With `N#Cc1ccc2c(c1)CCN(CCCn1c(-c3ccc4ccccc4c3)nc3ccncc31)CC2` the figure was 200 nM. In the case of `Cc1cc(NN=Cc2cccc(F)c2)c2cc(F)ccc2n1`, the IC50 is 480 nM. With `COc1ccc(CCNCCCCCCNCCCc2ccc(Cl)cc2)cc1OC` the figure was 950 nM; with `C[C@H](NC(=O)[C@H](CCCCNC(=O)OC(C)(C)C)NC(=O)OC(C)(C)c1ccc(-c2ccccc2)cc1)C(=O)OCc1ccccc1`, 180 nM. With `CCCCN(CCCC)CCCN(CCCN(CCCC)CCCC)c1cc(C)nc(Nc2ccc(Br)cc2)n1` the figure was 130 nM. The figure for `CN1CCN(CCNc2c3ccccc3nc3ccc4ccccc4c23)CC1` is 530 nM; for `COc1cc2nc(NCCCO)nc(Nc3ccc(Oc4ccccc4)cc3)c2cc1OC` it is 140 nM; for `COc1ccc(CNC2CCN(C)CC2)cc1-c1ccc(S(=O)(=O)NCc2ccccc2)c(C)c1` it is 990 nM. `CN1CCCN(Cc2cccc(-c3ccc(CNC(=O)c4cccc(Cl)c4)c(F)c3)c2)CC1` returned an IC50 of 190 nM. With `CCCCCCCN1CCC(CC(=O)Nc2ccnc3ccc(OC)cc23)CC1` the figure was 720 nM; with `CN(C1CCC(NC(=O)/C=C/c2ccccc2)CC1)C1CC2(CCN(C(=O)OC(C)(C)C)CC2)c2ccccc21` (stereo not drawn), 820 nM. The compound `O=C(NC1CCN(Cc2ccccc2)CC1)c1cc(-c2ccncc2)c(-c2ccc(Cl)c(O)c2)o1` had an IC50 of 410 nM. Take `COc1cc(C(=O)NC2CCN(Cc3ccccc3)CC2)ccc1-c1nc2cc(Cl)c(Cl)cc2[nH]1`: the IC50 came to 520 nM.

For `COc1cc2ccccc2c(OC)c1CCNCCCCNCCc1c(OC)cc2ccccc2c1OC`, the IC50 turned out to be 890 nM. With `Cc1c(Cl)ccc2c(C(=O)Nc3ccncc3)cc(-c3cccnc3)nc12` the figure was 780 nM. The figure for `Cc1cc(N[C@@H](Cc2ccccc2)C(=O)NCCCOC(C)C)nc(NCCc2ccc(F)cc2)n1` is 930 nM.

Regarding `O=C(Nc1ccc(Br)c(C(F)(F)F)c1)c1cccc([N+](=O)[O-])c1`, the IC50 was found to be 910 nM.

As for `CCN1CCN(c2cc(C)c3cc(NC(=O)c4ccc(Br)o4)ccc3n2)CC1`, the IC50 came to 750 nM. With `CN(C)c1cc(C(=O)N[C@@H](Cc2ccccc2)[C@H](O)CNC2CCCCC2)cc2[nH]ccc12` the figure was 1070 nM. `O=[N+]([O-])c1cccc(C=NNc2nc(Nc3ccccc3)nc(Nc3ccccc3)n2)c1` registered an IC50 of 970 nM. `CC(C)CN1C(=O)c2ccccc2C(C(=O)Nc2cccc(C#N)c2)C1c1cccs1` (stereo not drawn) registered an IC50 of 160 nM. The figure for `NC(N)=NCCCCN(Cc1ccccc1)c1ccccc1` is 740 nM; for `COc1ccc(CNc2cc(C)nc3sc4c(c23)CCC2(C4)OCCO2)cc1` it is 950 nM. Regarding `Cc1cc2c(NC(=O)NC3CCN(CCc4cccc(Cl)c4)CC3)cccc2cn1`, the IC50 came out at 370 nM. The figure for `Fc1ccc2nc(-c3cccc(-c4ccc(CN5CCN(CCN6CCOCC6)CC5)cc4)c3)[nH]c2c1` is 310 nM; for `Cc1[nH]c(C)c(-c2ccc(OCc3cccc(C(F)(F)F)c3)nc2)c(=O)c1Br` it is 40 nM; for `N[C@@H](Cc1cc(I)c(Oc2ccc(O)c(Cl)c2)c(I)c1)C(=O)O` it is 990 nM. With `O=C(Nc1ccc2c(c1)CCC2)c1cccc(CN2CCCN(Cc3cccc(O)c3)CC2)c1` the figure was 1080 nM. The figure for `COc1ccc(CNC2CCN(C)CC2)cc1-c1ccc(S(=O)(=O)NCC2CCCO2)s1` (stereo not drawn) is 800 nM; for `O=C(c1cccs1)N1N=C(c2cccs2)CC1c1cccc([N+](=O)[O-])c1` (stereo not drawn) it is 820 nM.

`Cc1cc(C)c(O)c(-c2cc(C(=O)Nc3ccc(S(=O)(=O)N4CC(C)OC(C)C4)cc3)[nH]n2)c1` (stereo not drawn) returned an IC50 of 660 nM. With `Cc1cc(NC(=O)c2cccs2)ccc1OC1CCN(Cc2ccccc2)C1` (stereo not drawn) the figure was 890 nM; with `CN1CCN(CCNc2c3ccccc3nc3c2ccc2ccccc23)CC1`, 610 nM. The figure for `NC(N)=Nc1ccc(NC(=O)Nc2ccc(N=C(N)N)cc2)cc1` is 390 nM; for `CC(=O)Nc1ccc(C(=O)Nc2ccc(-c3cccc(-c4nc5ccc(C(F)(F)F)cc5[nH]4)c3)cc2)cn1` it is 110 nM. The figure for `CCN(CC)CCCn1c(N)c(-c2nc3ccccc3[nH]2)c2nc(C#N)c(C#N)nc21` is 270 nM.

As for `CCn1c(SCc2ccccc2)nc2c1c(=O)[nH]c(=O)n2C`, the half-maximal inhibitory concentration (IC50) came to 240 nM. For `COCCNCc1ccc(-c2cccc(CN(C(=O)NCCc3ccccc3)C3CCN(Cc4ccccc4)CC3)c2)cc1`, the IC50 was 920 nM. Regarding `CN(C)CCN(Cc1ccccc1-c1ccc(CNCCc2ccccc2)cc1)C(=O)NC1CCCCC1`, the half-inhibitory concentration (IC50) came to 910 nM. `c1cc(CNCC2CCCO2)cc(-c2ccc(-c3nc4ccccc4[nH]3)s2)c1` (stereo not drawn) showed an IC50 of 1170 nM. With `CCOc1cc(Cc2cnc(N)nc2N)ccc1OC` the figure was 1250 nM; with `Cc1ccc(-c2cc(C(=O)Nc3ccc(S(=O)(=O)N4CC(C)OC(C)C4)cc3)[nH]n2)c(O)c1` (stereo not drawn), 610 nM; with `Cc1ccc(Cn2nc(Cl)c(N3CCCNCC3)cc2=O)cc1NC(=O)Nc1ccc(-c2ccccc2)cc1`, 670 nM.

On to `O=C(/C=C/c1ccc(Cl)c(Cl)c1)NCCCCCN1CCC(NC(=O)Nc2cccc(Cl)c2Cl)CC1`, for which the IC50 worked out at 670 nM. `CCC(NC[C@@H](O)[C@H](Cc1ccccc1)NC(=O)c1cc(C2CCCC2)cc(N2CCCC2=O)c1)c1cccc(Cl)c1` (stereo partly drawn): the IC50 is 40 nM. `Cc1ccc(NC(=O)c2ccc(CN3CCCN(Cc4cccc(Cl)c4)CC3)cc2)cc1C`: the IC50 was determined as 1210 nM. With `O=C1OC(c2ccccc2)(c2ccccc2)CN1CC1CCN(Cc2ccc(O)c(Cl)c2)CC1` the figure was 820 nM; with `COCCSc1nc2scc(C)c2c(=O)n1Cc1cccc(OC)c1`, 910 nM. With `Cn1nccc1C(=O)NCCNCc1ccc(-c2cccc(-c3nc4ccc(C(F)(F)F)cc4[nH]3)c2)cc1` the figure was 120 nM. The figure for `COc1ccc(NC(=O)/C=C/c2ccccc2Cl)cc1OCCN1CCC(NCc2cccnc2)CC1` is 760 nM; for `O=C(Cc1cccc(Cl)c1)Nc1cccc(-c2c[nH]c3nc(Nc4cccc(OCc5ccccc5)c4)ncc23)c1` it is 1040 nM; for `COc1ccc(CCNCc2ccc3nc(N)cc(C)c3c2)cc1` it is 210 nM. `CC(C)(C)c1ccc2nccc(Nc3cccc(O)c3)c2c1` displayed an IC50 of 970 nM. With `Cc1cc(C(F)(F)F)cc(-n2ncc(-c3ccc(C(=O)NCc4ccccc4N)cc3)c2N)n1` the figure was 450 nM.

Source of the values: PubChem BioAssay AID2305 (GlaxoSmithKline (GSK), 2010).
